{"source": "patent US9429568B2", "about": "“Silaanthracene as a red and near infrared sensor and a method to manufacture such a sensor” (Board of Trustees of Southern Illinois University on Behalf …, priority 2010, dated 2016)", "key": {"[1]": {"assay": "Hypochlorous acid (HOCl) sensor: fluorescence and absorbance response to added HOCl", "assay_type": "physicochemical", "conditions": "0.5 μM compound; for peak emission intensity wavelength: all HOCl concentrations", "procedure": "A solution of compound 3 from Table 2 herein was formed at a concentration of 0.5 μM and at a pH of 7.4. HOCl was added to the solution at concentrations ranging up to 2 μM and the fluorescence of the resulting solutions was measured after exposure to an excitatory light pulse of 655 nm.\nA solution of compound 29 from Table 5 herein was formed at a concentration of 0.5 μM and at a pH of 7.4. HOCl was added to the solution at concentrations ranging up to 5 μM and the fluorescence of the resulting solutions was measured after exposure to an excitatory light pulse of 580 nm."}, "[2]": {"assay": "Ratiometric sensor for hypochlorous acid and pH: UV-Vis and fluorescence in buffer series", "assay_type": "physicochemical", "conditions": "excited at 430 nm, all HOCl concentrations, phosphate or citrate/phosphate buffer, 0.5% DMF", "procedure": "A solution of compound 29 from Table 4 herein was dissolved in a series of phosphate buffer or citrate/phosphate buffer solutions using 0.5% DMF for dissolution. The pH level of each sample solution was checked using a digital pH meter (Accumet, AB15) equipped with a glass electrode (Accumet, pH/ATC Calomel) to confirm the pH of each sample solution. After recording the pH of a sample solution, 20 mL of the sample solution was stirred in a 50 mL beaker to saturate the sample solution with oxygen. Small aliquots from a dilute HOCl solution were then added to the sample solution. After the addition of each HOCl aliquot, the sample solution was stirred for approximately 45 seconds and then the UV-Vis and fluorescence of the sample solution was measured using a quartz cuvette with fluorescence excitations at 570 nm and 430 nm. The concentration of the NaOCl solution was determined by using a standardized sodium thiosulfate solution."}}}
{"smiles": "CN(C)c1ccc2c(c1)[Si](C)(C)c1cc(N(C)C)ccc1C21SCc2ccccc21", "note": "[Compound 3]", "values": [{"measurement": "peak emission intensity wavelength", "setting": "[1]; pH 7.4, HOCl up to 2 μM, excitation 655 nm", "result": 663, "unit": "nm"}]}
{"smiles": "C[Si]1(C)c2cc(O)ccc2C2(c3ccccc3C(=O)N2CCN2CCNCCNCCNCC2)c2ccc(O)cc21", "note": "[Compound 29]", "values": [{"measurement": "maximum absorbance wavelength λmax", "setting": "[1]; pH 7.4, HOCl up to 5 μM", "result": 590, "unit": "nm"}, {"measurement": "shoulder peak emission wavelength", "setting": "[1]; pH 7.4, HOCl up to 5 μM, excited at 430 nm", "result": 570, "unit": "nm"}, {"measurement": "peak emission intensity wavelength", "setting": "[1]; pH 7.4, HOCl up to 5 μM, excited at 570 nm", "result": 605, "unit": "nm"}, {"measurement": "first emission intensity peak wavelength", "setting": "[2]", "result": 570, "unit": "nm"}, {"measurement": "second more intense emission peak wavelength", "setting": "[2]", "result": 600, "unit": "nm"}]}
